Measurements from ChEMBL document CHEMBL3992552, “Mechanisms of action and structure-activity relationships of cytotoxic flavokawain derivatives” (Bioorg Med Chem, 2017).
The source made the active and inactive calls. The rule behind the calls is not given here.

Key:
MDA-MB-231 [1] = test: Induction of apoptosis in human MDA-MB-231 cells harboring p53 mutant assessed as increase in late apoptosis at 2 times IC50 after 24 hrs by YoPro/propidium iodide/Hoechst staining based assay; format: functional, cell-based
Fibroblast = test: Cytotoxicity against human fibroblasts assessed as cell viability after 48 hrs by Hoechst 33342 staining based assay
NCI-H727 [2] = test: Cell cycle arrest in human NCI-H727 cells assessed as accumulation at G1/S phase by Hoechst staining based fluorescence assay; format: functional
HCT-116 [3] = test: Cytotoxicity against human HCT116 cells assessed as cell viability after 48 hrs by Hoechst 33342 staining based assay; format: functional; conditions: HCT-116, 48 h
NCI-H727 [4] = test: Cell cycle arrest in human NCI-H727 cells harboring p53 mutant assessed as accumulation at S phase at 10 uM measured after 48 hrs by Hoechst/BrdU staining based fluorescence assay (reference value: 40.3%); format: functional
[5] = Selectivity index, ratio of IC50 for human fibroblasts to IC50 for human PC3 cells
MDA-MB-231 [6] = test: Cytotoxicity against human MDA-MB-231 cells assessed as cell survival at 50 uM after 48 hrs by Hoechst 33342 staining based assay relative to control; format: functional; conditions: MDA-MB-231, 48 h, read-out: Survival
Huh-7 [7] = test: Cytotoxicity against human HuH7 cells assessed as cell viability after 48 hrs by Hoechst 33342 staining based assay; format: functional; conditions: Huh-7, 48 h
NCI-H727 [8] = test: Cell cycle arrest in human NCI-H727 cells harboring p53 mutant assessed as mitotic index at 25 uM measured after 48 hrs by Hoechst staining based fluorescence assay (reference value: 1.1); format: functional
[9] = Selectivity index, ratio of IC50 for human fibroblasts to IC50 for human HuH7 cells
PC-3 [10] = test: Induction of apoptosis in human PC3 cells harboring p53 mutant assessed as increase in cleaved caspase3 at 2 times IC50 after 48 hrs by Hoechst staining based assay; format: functional, cell-based
HCT-116 [11] = test: Induction of apoptosis in human HCT116 cells harboring wild-type p53 assessed as upregulation of cyclinB1 measured after 48 hrs by Hoechst staining based assay; format: functional, cell-based
HCT-116 [12] = test: Cell cycle arrest in human HCT116 cells harboring wild-type p53 assessed as accumulation at S phase at 25 uM measured after 48 hrs by Hoechst/BrdU staining based fluorescence assay (reference value: 68.4%); format: functional
HCT-116 [13] = test: Cytotoxicity against human HCT116 cells assessed as cell survival at 50 uM after 48 hrs by Hoechst 33342 staining based assay relative to control; format: functional; conditions: HCT-116, 48 h, read-out: Survival
PC-3 [14] = test: Cell cycle arrest in human PC3 cells harboring p53 mutant assessed as accumulation at S phase at 25 uM measured after 48 hrs by Hoechst/BrdU staining based fluorescence assay (reference value: 40.8%); format: functional
HaCaT [15] = test: Cell cycle arrest in human HaCaT cells harboring […] p53 assessed as mitotic index at 10 uM measured after 48 hrs by Hoechst staining based fluorescence assay (reference value: 2.6); format: functional
HCT-116 [16] = test: Cell cycle arrest in human HCT116 cells harboring wild-type p53 assessed as mitotic index at 25 uM measured after 48 hrs by Hoechst staining based fluorescence assay (reference value: 2.3); format: functional
Caco-2 [17] = test: Cell cycle arrest in human Caco2 cells assessed as accumulation at S phase at 10 uM measured after 48 hrs by Hoechst/BrdU staining based fluorescence assay (reference value: […]); format: functional
HCT-116 [18] = test: Induction of apoptosis in human HCT116 cells harboring wild-type p53 assessed as upregulation of p21 measured after 48 hrs by Hoechst staining based fluorescence assay; format: functional, cell-based
NCI-H727 [19] = test: Cytotoxicity against human NCI-H727 cells assessed as cell survival at 50 uM after 48 hrs by Hoechst 33342 staining based assay relative to control; format: functional; conditions: NCI-H727, 48 h, read-out: Survival
HCT-116 [20] = test: Cell cycle arrest in human HCT116 cells harboring wild-type p53 assessed as accumulation at S phase at 10 uM measured after 48 hrs by Hoechst/BrdU staining based fluorescence assay (reference value: 68.4%); format: functional
HaCaT [21] = test: Cell cycle arrest in human HaCaT cells harboring […] p53 assessed as accumulation at S phase at 10 uM measured after 48 hrs by Hoechst/BrdU staining based fluorescence assay (reference value: 52.3%); format: functional
MCF7 [22] = test: Induction of apoptosis in human MCF7 cells harboring wild-type p53 assessed as upregulation of p21 measured after 48 hrs by Hoechst staining based fluorescence assay; format: functional, cell-based
HaCaT [23] = test: Cell cycle arrest in human HaCaT cells assessed as accumulation at M phase by Hoechst staining based fluorescence assay; format: functional
MDA-MB-231 [24] = test: Cell cycle arrest in human MDA-MB-231 cells harboring p53 mutant assessed as mitotic index at 10 uM measured after 48 hrs by Hoechst staining based fluorescence assay (reference value: 2.1); format: functional
[25] = Selectivity index, ratio of IC50 for human fibroblasts to IC50 for human Caco2 cells
Huh-7 [26] = test: Cell cycle arrest in human HuH7 cells assessed as mitotic index at 10 uM measured after 48 hrs by Hoechst staining based fluorescence assay (reference value: 2.2); format: functional
Caco-2 [27] = test: Cell cycle arrest in human Caco2 cells assessed as accumulation at M phase by Hoechst staining based fluorescence assay; format: functional
NCI-H727 [28] = test: Cell cycle arrest in human NCI-H727 cells harboring p53 mutant assessed as accumulation at S phase at 25 uM measured after 48 hrs by Hoechst/BrdU staining based fluorescence assay (reference value: 40.3%); format: functional
RL = test: Cytotoxicity against human RL assessed as cell viability after 48 hrs by Hoechst 33342 staining based assay; format: functional
HaCaT [29] = test: Cytotoxicity against human HaCaT cells assessed as cell viability after 48 hrs by Hoechst 33342 staining based assay; format: functional
HaCaT [30] = test: Cytotoxicity against human HaCaT cells assessed as cell survival at 50 uM after 48 hrs by Hoechst 33342 staining based assay relative to control; format: functional; conditions: read-out: Survival
PC-3 [31] = test: Cell cycle arrest in human PC3 cells harboring p53 mutant assessed as mitotic index at 25 uM measured after 48 hrs by Hoechst staining based fluorescence assay (reference value: 2.5); format: functional
MDA-MB-231 [32] = test: Cell cycle arrest in human MDA-MB-231 cells harboring p53 mutant assessed as accumulation at S phase at 10 uM measured after 48 hrs by Hoechst/BrdU staining based fluorescence assay (reference value: 42.2%); format: functional
MCF7 [33] = test: Cytotoxicity against human MCF7 assessed as cell viability after 48 hrs by Hoechst 33342 staining based assay; format: functional; conditions: MCF7, 48 h
Caco-2 [34] = test: Cell cycle arrest in human Caco2 cells assessed as accumulation at S phase at 25 uM measured after 48 hrs by Hoechst/BrdU staining based fluorescence assay (reference value: […]); format: functional
MDA-MB-231 [35] = test: Cytotoxicity against human MDA-MB-231 cells assessed as cell viability after 48 hrs by Hoechst 33342 staining based assay; format: functional; conditions: MDA-MB-231, 48 h
PC-3 [36] = test: Cytotoxicity against human PC3 cells assessed as cell survival at 50 uM after 48 hrs by Hoechst 33342 staining based assay relative to control; format: functional; conditions: PC-3, 48 h, read-out: Survival
[37] = Selectivity index, ratio of IC50 for human fibroblasts to IC50 for human RL cells

| Compound | IC50 (Fibroblast) | Activity (NCI-H727 [2]) | IC50 (HCT-116 [3]) | Activity (NCI-H727 [4]) | Ratio IC50 [5] | viability at 50 µM (MDA-MB-231 [6]) | IC50 (Huh-7 [7]) | Activity_index (NCI-H727 [8]) | Activity (PC-3 [10]) | Activity (HCT-116 [11]) | Activity (HCT-116 [12]) | viability at 50 µM (HCT-116 [13]) | Activity (PC-3 [14]) | Activity_index (HaCaT [15]) | Activity_index (HCT-116 [16]) | Activity (Caco-2 [17]) | Activity (HCT-116 [18]) | viability at 50 µM (NCI-H727 [19]) | Activity (HCT-116 [20]) | Activity (HaCaT [21]) | further results |
| --- | --- | --- | --- | --- | --- | --- | --- | --- | --- | --- | --- | --- | --- | --- | --- | --- | --- | --- | --- | --- | --- |
| COc1cc(OC)c(C(=O)/C=C/c2ccc(F)cc2)c(OC)c1 | > 20 µM | Active | 6.2 µM | 31% | >9.1 | 12% | 14.6 µM | 0.4 | Active | Active | 0.7% | 1% | 0.4% | 10.7 | 0.4 | 39% | Active | 4% | 23% | 20% | Activity (MDA-MB-231 [1]): Active; Ratio IC50 [9]: >3.4; Activity (MCF7 [22]): Active; Activity (HaCaT [23]): Active; Activity_index (MDA-MB-231 [24]): 22; Ratio IC50 [25]: >9.1; Activity_index (Huh-7 [26]): 4.7; Activity (Caco-2 [27]): Active; Activity (NCI-H727 [28]): 4.5%; IC50 (RL): 6.4 µM; IC50 (HaCaT [29]): 7.6 µM; viability at 50 µM (HaCaT [30]): 21%; Activity_index (PC-3 [31]): 0.4; Activity (MDA-MB-231 [32]): 43%; IC50 (MCF7 [33]): 7.7 µM; Activity (Caco-2 [34]): 13%; IC50 (MDA-MB-231 [35]): 10.7 µM; viability at 50 µM (PC-3 [36]): 26%; Ratio IC50 [37]: >7.8 |
| COc1cc(O)c(C(=O)/C=C/c2ccccc2OC)c(OC)c1 | > 20 µM | Active | 9.2 µM | 43% | 3.8 | 37% | > 20 µM | 0.5 | Active | Active | 27% | 8% | 24% | 3.1 | 1.8 | 46% | Active | 11% | 42% | 49% | Activity (MCF7 [22]): Active; Activity (HaCaT [23]): Active; Activity (MDA-MB-231 [24]): inactive; Ratio IC50 [25]: 3.6; Activity (Huh-7 [26]): inactive; Activity (Caco-2 [27]): Active; Activity (NCI-H727 [28]): 14%; IC50 (RL): 10.1 µM; IC50 (HaCaT [29]): 10.9 µM; viability at 50 µM (HaCaT [30]): 30%; Activity_index (PC-3 [31]): 7.2; Activity (MDA-MB-231 [32]): inactive; IC50 (MCF7 [33]): 10.5 µM; Activity (Caco-2 [34]): 37%; IC50 (MDA-MB-231 [35]): > 20 µM; viability at 50 µM (PC-3 [36]): 32%; Ratio IC50 [37]: 3.6 |
| COc1cc(O)c(C(=O)/C=C/c2ccccc2SC)c(OC)c1 | > 20 µM | Active | 10 µM | 43% | 4.1 | 39% | 16.6 µM | 0.4 | Active | Active | 28% | 1% | 31% | 3.1 | 1.3 | 50% | Active | 8% | 52% | 51% | Ratio IC50 [9]: 2.2; Activity (MCF7 [22]): Active; Activity (HaCaT [23]): Active; Activity (MDA-MB-231 [24]): inactive; Ratio IC50 [25]: 3.8; Activity_index (Huh-7 [26]): 2.3; Activity (Caco-2 [27]): Active; Activity (NCI-H727 [28]): 12%; IC50 (RL): 8.9 µM; IC50 (HaCaT [29]): 10.5 µM; viability at 50 µM (HaCaT [30]): 22%; Activity_index (PC-3 [31]): 7.6; Activity (MDA-MB-231 [32]): inactive; IC50 (MCF7 [33]): 15.9 µM; Activity (Caco-2 [34]): 37%; IC50 (MDA-MB-231 [35]): > 20 µM; viability at 50 µM (PC-3 [36]): 35%; Ratio IC50 [37]: 4.1 |
